In patent publication EP0101234A1, “Therapeutic agent” (The Boots Company PLC, priority 1982, dated 1984):
Structures can show the parent of a compound that is named as a salt. Where two headings read alike, the source gives them in different places.

System: uptake systems for 5HT in the brain
Experiment: in vivo inhibition of p-chloroamphetamine-induced depletion of brain 5HT
Set-up: species or system Charles River CD rats
Conditions: Rattus norvegicus, read-out: percentage inhibition of depletion (Ib)
Description: Once inside the neuron the depletor agent displaces the amine transmitter from its storage sites into the cytoplasm of the cell where it is metabolised by monoamine oxidase. […] The levels of the amine transmitter are preserved by pretreatment of the uptake sites with an uptake inhibitor. […] After 30 minutes a solution of p-chloroamphetamine in. distilled water was injected intraperitoneally at a dose of 5 mg/kg. After a further four hours the animals were sacrificed and the 5HT level in the brain determined fluorometrically.
The 5HT level in the brain was also determined in Control animals which received only vehicle solutions and for animals which received vehicle orally instead of the test compound followed by intraperitoneal injections of the depleting agent. These latter animals are referred to herein as depleted controls. The percentage inhibition. of depletion (Ib) was calculated using the formula

[1] = rats, 30 mg/kg orally, p-chloroamphetamine 5 mg/kg i.p. after 30 minutes, brain 5HT level after a further four hours

Work on CN(C)CCC=C1c2cc(C#N)ccc2CSc2ccccc21 [Product of Example A, 11-(3-Dimethyl-aminopropylidene)6,1i-dihydrodibenzo[b,e]thiepin-9-carbonitrile hydrobromide] yielded an inhibition at 30 mg/kg [1] of 0%.

With CN(C)CCCN1c2ccccc2CCc2ccccc21 [Imipramine] the inhibition at 30 mg/kg was 18%.

With CN(C)CCC=C1c2ccccc2CSc2ccc(C#N)cc21 [Product of Example 1, 11-(3-dimethylaminopropylidene)-6,11-dihydrodibenzo(b,e)thiepin-2-carbonitrile hydrobromide] the inhibition at 30 mg/kg [1] was 82%.

CN(C)CC/C=C1\c2ccccc2CSc2ccccc21 [Dothiepin] gave an inhibition at 30 mg/kg [1] of 9%.

Work on CN(C)CCCN1c2ccccc2CCc2ccc(Cl)cc21 [Clomipramine] yielded an inhibition at 30 mg/kg of 8%.
